“And” between values parts separate entries of the source, which are not always exact repeats. Equal values may be shown once. Read-outs that look alike come from different tables or passages of the source.
Experiments:
[1] = target: T1, MC13 (Slo1(1-181):Slo3(171-1121)) (Mus musculus, UniProt O54982); assay type: cell-based
[2] = test system: IRK1; details: read-out: EC50, block of IRK1; cited from earlier work
[3] = quinidine; cited from earlier work
[4] = pK and percent protonation of tertiary amines; assay type: physicochemical; details: quinidine at pH 8.5; calculated from pK 8.6
[5] = target: T2, mouse Slo1 K+ channels (Mus musculus, UniProt Q08460); assay: Block of Slo1 currents, blocker applied cytosolically to inside-out patches; assay type: cell-based
T2 sequence (Q08460 66-1209 limits assumed): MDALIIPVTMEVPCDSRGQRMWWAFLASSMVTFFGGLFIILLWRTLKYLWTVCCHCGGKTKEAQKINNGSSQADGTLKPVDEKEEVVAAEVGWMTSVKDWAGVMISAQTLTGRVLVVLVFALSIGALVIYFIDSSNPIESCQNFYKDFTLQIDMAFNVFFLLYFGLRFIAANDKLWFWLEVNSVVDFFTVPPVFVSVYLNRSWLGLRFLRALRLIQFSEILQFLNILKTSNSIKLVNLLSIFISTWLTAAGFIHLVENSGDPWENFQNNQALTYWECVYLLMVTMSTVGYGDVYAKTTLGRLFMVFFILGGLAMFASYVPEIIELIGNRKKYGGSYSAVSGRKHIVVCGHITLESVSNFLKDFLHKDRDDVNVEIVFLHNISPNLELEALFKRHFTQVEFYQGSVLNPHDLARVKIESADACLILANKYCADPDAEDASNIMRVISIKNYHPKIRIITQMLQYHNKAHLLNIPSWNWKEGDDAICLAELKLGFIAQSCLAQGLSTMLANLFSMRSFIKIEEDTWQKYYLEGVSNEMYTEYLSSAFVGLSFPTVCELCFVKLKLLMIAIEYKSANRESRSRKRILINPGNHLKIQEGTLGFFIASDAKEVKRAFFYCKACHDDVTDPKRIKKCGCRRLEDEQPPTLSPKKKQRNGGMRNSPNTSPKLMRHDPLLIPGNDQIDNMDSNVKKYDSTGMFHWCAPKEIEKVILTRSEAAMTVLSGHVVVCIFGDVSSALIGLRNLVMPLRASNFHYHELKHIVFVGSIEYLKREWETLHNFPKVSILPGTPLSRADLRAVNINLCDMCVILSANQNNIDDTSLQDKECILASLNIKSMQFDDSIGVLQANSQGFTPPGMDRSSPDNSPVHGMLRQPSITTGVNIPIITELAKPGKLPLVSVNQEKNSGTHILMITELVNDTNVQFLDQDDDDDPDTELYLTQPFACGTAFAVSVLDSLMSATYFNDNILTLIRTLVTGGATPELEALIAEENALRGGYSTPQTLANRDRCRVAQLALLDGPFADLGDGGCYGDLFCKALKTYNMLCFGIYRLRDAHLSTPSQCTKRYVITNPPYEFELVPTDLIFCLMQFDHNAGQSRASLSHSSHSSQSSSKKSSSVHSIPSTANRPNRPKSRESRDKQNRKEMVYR

[6] = target: T1, MC13 (Slo1(1-181):Slo3(171-1121)); assay: Block of MC13; assay type: cell-based
[7] = test system: sperm; details: cited from earlier work
[8] = test system: ROMK1; details: cited from earlier work
[9] = test system: native pH-dependent KSper K+ channel; details: 500 μM quinidine; activation at pH 7.5 and +100 mV; cited from earlier work
[10] = target: T2, mouse Slo1 K+ channels; assay: Block of Slo1 currents, blocker applied extracellularly to outside-out patches; assay type: cell-based
[11] = intracellular quinidine, pH 8.5, fit OB-CB (2') 4 params
[12] = extracellular quinidine, pH 8.5, fit OB-CB (2') 4 params
[13] = extracellular quinidine, 300 μM Ca2+, pH 8.5, fit OB-CB (2') 4 params

T1 sequence (O54982 171-1121): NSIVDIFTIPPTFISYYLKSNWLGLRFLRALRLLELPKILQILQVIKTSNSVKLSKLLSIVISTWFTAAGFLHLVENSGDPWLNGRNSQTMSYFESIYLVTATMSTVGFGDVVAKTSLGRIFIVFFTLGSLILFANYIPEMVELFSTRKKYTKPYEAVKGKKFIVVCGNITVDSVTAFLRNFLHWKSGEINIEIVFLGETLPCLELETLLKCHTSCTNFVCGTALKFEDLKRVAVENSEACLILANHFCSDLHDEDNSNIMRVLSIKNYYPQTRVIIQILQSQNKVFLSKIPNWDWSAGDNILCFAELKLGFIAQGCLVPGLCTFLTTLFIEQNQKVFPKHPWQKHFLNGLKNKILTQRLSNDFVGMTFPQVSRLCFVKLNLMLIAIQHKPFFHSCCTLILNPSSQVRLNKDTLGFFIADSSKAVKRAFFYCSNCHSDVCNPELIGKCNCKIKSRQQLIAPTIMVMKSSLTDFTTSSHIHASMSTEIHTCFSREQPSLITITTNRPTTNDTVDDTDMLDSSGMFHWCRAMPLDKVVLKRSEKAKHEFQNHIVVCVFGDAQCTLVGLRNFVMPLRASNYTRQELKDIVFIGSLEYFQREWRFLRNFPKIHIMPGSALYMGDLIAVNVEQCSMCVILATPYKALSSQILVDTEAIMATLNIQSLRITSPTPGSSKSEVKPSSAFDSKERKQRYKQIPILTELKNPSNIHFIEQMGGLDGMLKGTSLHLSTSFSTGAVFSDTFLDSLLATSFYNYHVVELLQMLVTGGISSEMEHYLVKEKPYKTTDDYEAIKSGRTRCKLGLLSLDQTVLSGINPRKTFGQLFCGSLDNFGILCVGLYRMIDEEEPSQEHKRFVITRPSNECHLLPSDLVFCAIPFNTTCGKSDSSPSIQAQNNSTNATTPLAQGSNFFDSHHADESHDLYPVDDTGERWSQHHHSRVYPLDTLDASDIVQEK
T1 sequence (Q08460 66-246 partner): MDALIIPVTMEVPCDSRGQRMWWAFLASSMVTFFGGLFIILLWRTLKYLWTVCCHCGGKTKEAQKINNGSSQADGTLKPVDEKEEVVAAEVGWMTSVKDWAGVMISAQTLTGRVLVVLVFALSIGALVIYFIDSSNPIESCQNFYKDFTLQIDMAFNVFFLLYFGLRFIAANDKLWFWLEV

## C=C[C@H]1C[N@@]2CC[C@H]1C[C@@H]2[C@@H](O)c1ccnc2ccc(OC)cc12 [quinidine]
[1]; cytosolic quinidine, Scheme 2a
  change in effective Kb(0), pH 8.5 versus pH 8.2: approximately 2 fold
[1]; [11]
  zc: -0.15 ± 0.38 e
  zo: -0.38 ± 0.10 e
[1]; quinidine, at potentials near 0 mV
  block of MC13 at lower concentrations than block of Slo1 currents: ~ 100 fold
[2]
  EC50: 700 µM
[3]
  pK (one protonatable site): ~4.2
  pK (second protonatable site, value used): 8.6
[4]
  percent protonated: 55.7% and 55.73%
[5]
  Kb: 92.8 ± 9.8 µM
  Kd: 207 ± 7.4 µM
[5]; cytosolic quinidine
  effective change in Kb(0), pH 8.5 versus pH 7.0: 1.56 fold
[5]; cytosolic quinidine, 10 μM Ca2+ at pH 7.0, Eqn. 1 open channel block
  zδ: 0.11 ± 0.03 e
[5]; intracellular quinidine, 300 μM Ca2+, pH 8.5, fit OB-CB (2a) 2 params
  zo: 0.28 ± 0.02 e
[6]; at potentials near 0 mV, irrespective of the side of application
  quinidine concentration giving strong block of Slo3: less than 10 μM
[6]; [12]
  zc: -0.55 ± 1.5 e
  zo: -0.27 ± 0.02 e
[7]
  lowest concentration at which effects on sperm function have been reported: 20 µM
[8]
  inhibition of ROMK1: only moderately inhibited
[9]
  block of native KSper K+ channel: strongly block
[10]
  Kb: 950 ± 20 µM
[10]; Kbc, extracellular quinidine, 300 μM Ca2+, pH 8.5, fit OB-CB (2') 4 params
  Kd: 1200 ± 210 µM
[10]; Kbo, extracellular quinidine pH 7.0, 300 μM Ca2+, pH 8.5, fit OB (1a) 2 params
  Kd: 950 ± 20 µM
[10]; Kbo, extracellular quinidine, 300 μM Ca2+, pH 8.5, fit OB-CB (2') 4 params
  Kd: 1510 ± 160 µM
[10]; Kbo, extracellular quinidine, 300 μM Ca2+, pH 8.5, fit OB-CB (2a) 2 params
  Kd: 1490 ± 40 µM
[10]; extracellular quinidine pH 7.0, 300 μM Ca2+, pH 8.5, fit OB (1a) 2 params
  zo (zδ): 0.047 ± 0.01 e and 0.05 ± 0.01 e
[10]; [13]
  zc: 0.66 ± 0.1 e
  zo: 0.06 ± 0.08 e

From publication PMC3723589 (Channels, 2010)
